Several values for one entry are separate records, joined by “and”; a condition that tells them apart may be missing. Identical values can stand only once. Toxic doses and inconclusive results are not listed.

Results on 16 compounds are retold here after PubChem BioAssay AID328 (DTP/NCI, 2004).

This assay concerns BDF1 mice, P388 leukemia ip, median survival T/C. Description: NCI In Vivo Anticancer Drug Screen. Data for tumor model P388 Leukemia (intraperitoneal) in B6D2F1 (BDF1) mice. The following applies: endpoint: median survival time, higher = longer survival. In outline: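 Each value expresses how treatment altered survival: treated-mouse outcome over vehicle-mouse outcome, both groups bearing the transplanted tumour.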

[1] abbreviates: dose: 50.0 mg/kg/injection, schedule: Q01DX009 (ip), vehicle: saline with Tween-80.
Where [2] appears, read: dose: 100.0 mg/kg/injection, schedule: Q01DX009 (ip), vehicle: saline with Tween-80.
Where [3] appears, read: dose: 200.0 mg/kg/injection, schedule: Q01DX009 (ip), vehicle: saline with Tween-80.
[4] abbreviates: dose: 100.0 mg/kg/injection, schedule: Q04DX003 (ip), vehicle: saline with Tween-80.
Setting [5] is: dose: 200.0 mg/kg/injection, schedule: Q04DX003 (ip), vehicle: saline with Tween-80.
The mark [6] stands for this setting: dose: 400.0 mg/kg/injection, schedule: Q04DX003 (ip), vehicle: saline with Tween-80.
Setting [7] is: dose: 50.0 mg/kg/injection, schedule: Q04DX003 (ip), vehicle: saline with Tween-80.
Where [8] appears, read: dose: 75.0 mg/kg/injection, schedule: Q01DX009 (ip), vehicle: Klucel (hydroxypropylcellulose) (HPC).
The mark [9] stands for this setting: dose: 25.0 mg/kg/injection, schedule: Q04DX003 (ip), vehicle: saline with Tween-80.
Where [10] appears, read: dose: 1.25 mg/kg/injection, schedule: Q01DX010 (ip), vehicle: saline.
Setting [11] is: dose: 2.5 mg/kg/injection, schedule: Q01DX010 (ip), vehicle: saline.
Where [12] appears, read: dose: 10.0 mg/kg/injection, schedule: Q01DX010 (ip), vehicle: saline.

For `CCOC(CN(Cc1ccc(OC)c(OCc2ccccc2)c1)S(=O)(=O)c1ccc(C)cc1)OCC`, the T/C (dose: 25.0 mg/kg/injection, schedule: Q01DX009 (ip), vehicle: water) was 89 % of control; the T/C (dose: 50.0 mg/kg/injection, schedule: Q01DX009 (ip), vehicle: water) is 99 % of control; the T/C (dose: 100.0 mg/kg/injection, schedule: Q01DX009 (ip), vehicle: water) is 92 % of control; the T/C (dose: 200.0 mg/kg/injection, schedule: Q01DX009 (ip), vehicle: water) was 112 % of control; the T/C (dose: 400.0 mg/kg/injection, schedule: Q01DX009 (ip), vehicle: water) was 99 % of control.
Consider `O=C(O)/C=C/C(=O)Nc1ccc(I)cc1`, for which the T/C under setting [1] was 109 % of control, the T/C under setting [2] is 109 % of control and the T/C under setting [3] was 104 % of control.
For the compound `CC(=O)Oc1ccc(/C=N/NC(N)=S)nc1`, the T/C (dose: 0.18 mg/kg/injection, schedule: Q01DX009 (ip), vehicle: saline with Tween-80) is 123 % of control; the T/C (dose: 0.27 mg/kg/injection, schedule: Q01DX009 (ip), vehicle: saline with Tween-80) was 116 % of control; the T/C (dose: 0.4 mg/kg/injection, schedule: Q01DX009 (ip), vehicle: saline with Tween-80) was 176 % of control; the T/C (dose: 0.6 mg/kg/injection, schedule: Q01DX009 (ip), vehicle: saline with Tween-80) is 123 % of control; the T/C (dose: 44.0 mg/kg/injection, schedule: Q01DX009 (ip), vehicle: saline with Tween-80) is 177 % of control; the T/C (dose: 66.0 mg/kg/injection, schedule: Q01DX009 (ip), vehicle: saline with Tween-80) is 200 % of control. The T/C is 177 % of control and 220 % of control under setting [2]; 107 % of control under setting [4]; 90 % of control (dose: 150.0 mg/kg/injection, schedule: Q01DX009 (ip), vehicle: saline with Tween-80); 105 % of control under setting [3]; 111 % of control under setting [5]; 115 % of control under setting [6].
Regarding `C[N+]1(C)N=C([O-])N(c2ccccc2C(F)(F)F)C1=O`, the T/C is 87 % of control under setting [1] and 92 % of control under setting [2].
Turning to `CC(=O)NS(=O)(=O)c1ccc(NC(=O)/C=C/C(=O)O)cc1`, the T/C by setting is: under setting [4], 104 % of control; under setting [5], 118 % of control; under setting [6], 104 % of control.
For `CSc1ccc(OC(=O)Nc2ccccc2F)cc1`, the T/C under setting [7] was 90 % of control, the T/C under setting [4] was 100 % of control and the T/C under setting [5] was 109 % of control.
As for `Cc1cc(Cl)ccc1NC(=O)c1ccc(Cl)cc1`, the T/C reads like this: under setting [8], 113 % of control; (dose: 150.0 mg/kg/injection, schedule: Q01DX009 (ip), vehicle: Klucel (hydroxypropylcellulose) (HPC)) 95 % of control; (dose: 300.0 mg/kg/injection, schedule: Q01DX009 (ip), vehicle: Klucel (hydroxypropylcellulose) (HPC)) 100 % of control.
In the case of `O=[N+]([O-])c1ccc(N/N=C/CCl)c([N+](=O)[O-])c1`, the T/C was 120 % of control (dose: 6.25 mg/kg/injection, schedule: Q04DX003 (ip), vehicle: saline with Tween-80); 120 % of control (dose: 12.5 mg/kg/injection, schedule: Q04DX003 (ip), vehicle: saline with Tween-80); 118 % of control (dose: 16.5 mg/kg/injection, schedule: Q04DX003 (ip), vehicle: saline with Tween-80); 118 % of control under setting [9].
`COc1cc2c3c(c4ccc(OC)c(OC)c4c2cc1OC)CN1CCC[C@@H]1C3`: the T/C by setting is: under setting [10], 113 % of control; under setting [11], 154 % of control; (dose: 6.0 mg/kg/injection, schedule: Q01DX010 (ip), vehicle: water) 150 % of control; (dose: 8.0 mg/kg/injection, schedule: Q01DX010 (ip), vehicle: water) 170 % of control; under setting [12], 150 % of control; (dose: 10.0 mg/kg/injection, schedule: Q01DX010 (ip), vehicle: water) 90 % of control.
Take `CCCCCCC[CH2][Sn](=[O])[CH2]CCCCCCC`: the T/C (dose: 3.12 mg/kg/injection, schedule: Q01DX009 (ip), vehicle: saline) is 120 % of control; the T/C (dose: 6.25 mg/kg/injection, schedule: Q01DX009 (ip), vehicle: saline) was 100 % of control; the T/C (dose: 12.5 mg/kg/injection, schedule: Q01DX009 (ip), vehicle: saline) was 115 % of control; the T/C (dose: 22.0 mg/kg/injection, schedule: Q04DX003 (ip), vehicle: other) was 109 % of control; the T/C (dose: 25.0 mg/kg/injection, schedule: Q01DX009 (ip), vehicle: Klucel (hydroxypropylcellulose) (HPC)) is 86 % of control; the T/C (dose: 33.0 mg/kg/injection, schedule: Q04DX003 (ip), vehicle: Klucel (hydroxypropylcellulose) (HPC)) was 100 % of control and 114 % of control. The T/C by setting is: (dose: 33.0 mg/kg/injection, schedule: Q04DX003 (ip), vehicle: other) 118 % of control; (dose: 50.0 mg/kg/injection, schedule: Q04DX003 (ip), vehicle: other) 100 % of control; (dose: 100.0 mg/kg/injection, schedule: Q04DX003 (ip), vehicle: Klucel (hydroxypropylcellulose) (HPC)) 90 % of control.
For `NC(Cc1ccc(N(CCCl)CCCl)cc1)C(=O)O` (configuration not stated), the T/C by setting is: (dose: 0.5 mg/kg/injection, schedule: Q01DX009 (ip), vehicle: Klucel (hydroxypropylcellulose) (HPC)) 179 % of control; (dose: 1.0 mg/kg/injection, schedule: Q01DX009 (ip), vehicle: Klucel (hydroxypropylcellulose) (HPC)) 222 % of control; under setting [10], 181 % of control and 208 % of control; (dose: 2.0 mg/kg/injection, schedule: Q01DX009 (ip), vehicle: Klucel (hydroxypropylcellulose) (HPC)) 239 % of control; (dose: 2.0 mg/kg/injection, schedule: Q01DX010 (ip), vehicle: other) 300 % of control; under setting [11], 209 % of control and 216 % of control. In addition, the T/C reads like this: (dose: 4.0 mg/kg/injection, schedule: Q01DX009 (ip), vehicle: Klucel (hydroxypropylcellulose) (HPC)) 256 % of control; (dose: 4.0 mg/kg/injection, schedule: Q01DX010 (ip), vehicle: other) 250 % of control; (dose: 5.0 mg/kg/injection, schedule: Q01DX010 (ip), vehicle: saline) 233 % of control and 286 % of control; (dose: 8.0 mg/kg/injection, schedule: Q01DX010 (ip), vehicle: other) 113 % of control; under setting [12], 100 % of control; (dose: 16.0 mg/kg/injection, schedule: Q01DX010 (ip), vehicle: other) 90 % of control.
Consider `CN(C)CCNc1ccc(O)c2sc3ccccc3c(=O)c12`, for which the T/C reads like this: under setting [9], 96 % of control; under setting [7], 109 % of control; under setting [4], 97 % of control.
In the case of `Cc1ccc2c(ccc(/C=C/c3ccc(O)c4ncccc34)[n+]2C)c1`, the T/C under setting [8] is 104 % of control.
As for `CCCCCCCC/C=C\CCCCCCCC(=O)OCCCCCCCCCCCCCCC`, the T/C reads like this: (dose: 100.0 mg/kg/injection, schedule: Q04DX003 (ip), vehicle: saline) 100 % of control; (dose: 200.0 mg/kg/injection, schedule: Q04DX003 (ip), vehicle: saline) 100 % of control; (dose: 400.0 mg/kg/injection, schedule: Q04DX003 (ip), vehicle: saline) 100 % of control.
Regarding `O=C1Cc2ccc3c(c2O1)C(=O)c1ccccc1C3=O`, the T/C is 106 % of control (dose: 100.0 mg/kg/injection, schedule: Q04DX002 (ip), vehicle: saline with Tween-80) and 100 % of control (dose: 200.0 mg/kg/injection, schedule: Q04DX002 (ip), vehicle: saline with Tween-80).
With `S=C(NC1CCCCC1)NC1CCCCC1`, the T/C is, setting by setting: (dose: 50.0 mg/kg/injection, schedule: Q01DX009 (ip), vehicle: Klucel (hydroxypropylcellulose) (HPC)) 113 % of control; (dose: 100.0 mg/kg/injection, schedule: Q01DX001 (ip), vehicle: Klucel (hydroxypropylcellulose) (HPC)) 109 % of control; (dose: 100.0 mg/kg/injection, schedule: Q01DX009 (ip), vehicle: Klucel (hydroxypropylcellulose) (HPC)) 86 % of control; (dose: 200.0 mg/kg/injection, schedule: Q01DX001 (ip), vehicle: Klucel (hydroxypropylcellulose) (HPC)) 113 % of control; (dose: 200.0 mg/kg/injection, schedule: Q01DX009 (ip), vehicle: Klucel (hydroxypropylcellulose) (HPC)) 100 % of control; (dose: 400.0 mg/kg/injection, schedule: Q01DX001 (ip), vehicle: Klucel (hydroxypropylcellulose) (HPC)) 100 % of control.
